Consider 5 compounds from patent US9296746B2, “Heterocyclic compound” (TAKEDA PHARMACEUTICAL COMPANY LIMITED, priority 2012, dated 2016).

The target of test [1] is T1, human CH24H (Homo sapiens, UniProt Q9Y6A2).
T1 construct: Using Full-Length Mammalian Gene Collection No. 4819975 (Invitrogen) as a template; made in house; host or cells: FreeStyle 293-F cells (transient transfection); cell lysate supernatant, not purified
As to the kind of experiment: Measurement of CH24H inhibitory activity (24-HC produced from [14C] cholesterol by human CH24H lysate). As to conditions: test compound 1 μM, [14C] cholesterol 15 μM, 37° C., 5 hr, read-out: Inhibitory Rate (%) in 1 μM. Type of test: biochemical. How it is done: The expression of human CH24H was performed using FreeStyle 293 Expression System (Invitrogen). According to the manual attached to FreeStyle 293 Expression System and using the plasmid DNA for human CH24H expression (pcDNA3.1(+)/hCH24H) constructed in Experimental Example 1, a transient expression using FreeStyle 293-F cell was performed. After transfection, the cells were cultured at 37° C., 8% CO2 with shaking at 125 rpm for 2 days. The cells were collected by centrifugation, and suspended in a suspension buffer (100 mM potassium phosphate (pH 7.4), 0.1 mM EDTA, 1 mM DTT, 20% Glycerol). The suspended product was disrupted by a polytron homogenizer (manufactured by Kinematica), and centrifuged at 9000×g for 10 min, and the supernatant was collected. The collected supernatant was cryopreserved (−80° C.) as a human CH24H lysate standard product.
For the measurement of CH24H inhibitory activity, using the human CH24H lysate prepared in Experimental Example 2, the amount of 24-HC produced from cholesterol by catalytic activity of CH24H was measured in the presence of a test compound, and compared with that measured in the absence of the test compound. That is, a test compound solution at various concentrations was mixed with a reaction buffer (50 mM potassium phosphate containing 0.1% BSA and Complete, EDTA-free, pH 7.4) and human CH24H lysate. Then, [^14C] cholesterol (53 mCi/mmol specific activity, 15 μM) was added, and CH24H reaction was performed at 37° C. for 5 hr. After completion of the reaction, a quenching solution consisting of chloroform/methanol/distilled water (2:2:1 v/v) was added, and the resulting 24-HC was extracted by shaking. The extract was applied to silica gel thin layer chromatography (ethyl acetate:toluene=4:6), and the obtained ^14C-24HC fraction was measured with BAS2500 (Fujifilm Corporation).
The inhibitory rate (%) was calculated from the ratio of radioactivity in the presence of a test compound relative to the radioactivity in the absence of the test compound.

Test [2] concerns APP transgenic mouse (Tg2576). As to the kind of experiment: Novel object recognition test using an APP transgenic mouse (Tg2576). The format is in vivo, Tg2576 mice. As to conditions: 3 mg/mL suspension at 10 mL/kg orally once a day for 6 weeks. As to the method: Animals used were 6-week-old Tg2576 mice and their wild-type mice (10 mice/group). A test compound was suspended in a 0.5% aqueous methyl cellulose [133-14255 WAKO] solution (3 mg/mL). The body weight of the mice was measured, and the solution was forcibly administered orally and repeatedly at 10 mL/kg once a day for 6 weeks. Then, a novel object recognition test was performed as follows. On the day before acquisition trial, the mice kept in the same cage were put in an observation box in which the illuminance was set to 300 lx, and habituated for 30 min. After the habituation, a compound was orally administered. On the next day, the mice were put, as an acquisition trial, in an observation box in which two same objects were placed, and the number and duration of contacts to the objects were measured for 5 min under 300 lx. A compound was orally administered after the measurement. The day after the acquisition trial, the one object was replaced with a novel object, and the number and duration of contacts to each of the object were measured for 5 min. A metal cylinder and ceramic triangular pyramid were used in this test. A control group (test compound-untreated group) and a control group in wild-type mice were used for comparison. […]

Molecules are shown by their SMILES.

T1 sequence (Q9Y6A2 whole entry): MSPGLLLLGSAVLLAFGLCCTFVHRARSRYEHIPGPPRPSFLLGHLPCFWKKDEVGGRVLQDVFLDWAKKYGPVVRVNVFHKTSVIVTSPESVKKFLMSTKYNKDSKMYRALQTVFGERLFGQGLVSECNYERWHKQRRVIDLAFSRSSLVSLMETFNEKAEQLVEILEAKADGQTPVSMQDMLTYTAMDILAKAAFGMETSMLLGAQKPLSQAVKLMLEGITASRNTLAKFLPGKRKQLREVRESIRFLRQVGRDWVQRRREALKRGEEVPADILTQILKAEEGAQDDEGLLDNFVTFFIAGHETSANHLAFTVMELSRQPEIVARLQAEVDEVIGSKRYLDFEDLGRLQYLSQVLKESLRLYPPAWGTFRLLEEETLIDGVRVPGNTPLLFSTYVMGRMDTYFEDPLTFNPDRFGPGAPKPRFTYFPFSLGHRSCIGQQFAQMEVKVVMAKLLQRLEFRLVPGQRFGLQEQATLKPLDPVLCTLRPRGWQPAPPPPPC

For `O=C(c1cnc2c(-c3cnco3)cc(C(F)(F)F)cn12)N1C2CCC1COC2` [Example 85, 3-oxa-8-azabicyclo[3.2.1]oct-8-yl(8-(1,3-oxazol-5-yl)-6-(trifluoromethyl)imidazo[1,2-a]pyridin-3-yl)methanone], the inhibition at 1 µM in test [1] was 88%. For the same compound, in test [2], the “exploration Rate (%) of Novel Object, duration of contacts” value was determined as 61.8% and the “exploration Rate (%) of Novel Object, number of contacts” value was 54.4%. For the compound `O=C(c1cnc2c(-n3cncn3)cc(C(F)(F)F)cn12)N1C2COCC1C2` [Example 156, 3-oxa-6-azabicyclo[3.1.1]hept-6-yl(8-(1H-1,2,4-triazol-1-yl)-6-(trifluoromethyl)imidazo[1,2-a]pyridin-3-yl)methanone], in test [1], the inhibition at 1 µM came to 94%. For the compound `O=C(c1cnc2c(-c3cnco3)cc(C(F)(F)F)cn12)N1CCCC1` [Example 2, (8-(1,3-oxazol-5-yl)-6-(trifluoromethyl)imidazo[1,2-a]pyridin-3-yl)(pyrrolidin-1-yl)methanone], the inhibition at 1 µM in test [1] amounted to 89%.

For `N#C[C@H]1CCCN1C(=O)c1cnc2c(-c3cnco3)cc(C(F)(F)F)cn12` [Example 175, (2R)-1-((8-(1,3-oxazol-5-yl)-6-(trifluoromethyl)imidazo[1,2-a]pyridin-3-yl)carbonyl)pyrrolidine-2-carbonitrile], the inhibition at 1 µM in test [1] was 80%.

Take `CCNC(=O)c1c(C)nc2c(-c3cnco3)cc(C(F)(F)F)cn12` [Example 98, N-ethyl-2-methyl-8-(1,3-oxazol-5-yl)-6-(trifluoromethyl)imidazo[1,2-a]pyridine-3-carboxamide]: in test [1], the inhibition at 1 µM is 69%.
